Assay results published in patent US8916712B2, “Compositions and methods for cytoprotection” (Board of Trustees of the University of Arkansas, priority 2007, dated 2014).
Like-named read-outs stand apart in the source and are kept apart here.

What was measured:
[1] = Trolox-Equivalent Antioxidant Capacity (TEAC) Assay; conditions: for TEAC value, Ligand / TEAC value, Chelate: relative to Trolox standard assigned TEAC 1.00; for TEAC value, Chelate: zinc chelate of the named ligand
Method: The antioxidant capacity of the zinc chelates was measured using the 6-hydroxy-2,5,7,8-tetramethylchroman-2-carboxylic acid (Trolox)-Equivalent Antioxidant Capacity (TEAC) Assay (Randox Laboratories Ltd., Antrim, United Kingdom). […] Antioxidant capacity was measured relative to the Trolox standard, which was assigned a TEAC value of 1.00.

[2] = test system: U937 human promonocytic cells; conditions: for Radioprotection / cytoprotection: 0-100 μM added immediately after irradiation, PI assay 24 hr
Method: To determine the radioprotective effects of Zn^2+-chelates, U937 human promonocytic cells (ATCC number CRL-1593.2) were irradiated with or without Zn^2+-chelates added to the cells before or after irradiation, and radiation-induced cell death was measured 24 hr later using a propidium iodide (PI) assay. Propidium iodide was added to the cells at a final concentration of 4 μM and incubated for 15 minutes. Fluorescence (which indicates dead cells) was measured at 530/645 nm, and fluorescence was measured again after cell lysis with Triton-100 (1%, v/v) for 20 minutes (to give an estimate of total cells). The background (no cells) was subtracted, and the percent of the radiation-induced cell death was computed.
Different concentrations (0-100 μM) of a compound were added to the cells, which were then irradiated with 50 Gy.
Human U937 cells were irradiated in vitro with 50 Gy and the compounds were added at different concentrations (0-100 μM) immediately after irradiation. […] Cell death was measured 24 hr after irradiation using a PI assay (as detailed above).

[3] = target: T1, rat serum DNase (predominantly rat DNase I) (Rattus norvegicus, UniProt P21704); test: Plasmid incision assay of endonuclease activity, rat serum DNase; format: biochemical; conditions: 0, 100 or 200 μM; 1 hour at 37° C.; pBR322 plasmid DNA
T1 construct: rat serum DNase (which is predominantly rat DNase I); from tissue; host or cells: rat serum
T1 sequence (P21704 23-284): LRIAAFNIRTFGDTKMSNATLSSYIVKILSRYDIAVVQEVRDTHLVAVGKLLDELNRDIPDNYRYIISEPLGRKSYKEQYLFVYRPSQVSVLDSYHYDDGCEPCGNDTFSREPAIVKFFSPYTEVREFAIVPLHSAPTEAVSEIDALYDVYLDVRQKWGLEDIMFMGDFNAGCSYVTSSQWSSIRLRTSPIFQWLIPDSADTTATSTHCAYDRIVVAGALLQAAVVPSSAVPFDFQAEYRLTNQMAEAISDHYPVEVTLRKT
Method: (§1) Endonuclease activity was measured using a plasmid incision assay. Activity was measured in 20 μl samples containing 1 μg pBR322 plasmid DNA, 10 mM Tris-HCl, pH 7.7, 25 μg/ml bovine serum albumin V fraction, 0.5 mM dithiothreitol, 5 mM MgCl2, 2 mM CaCl2, and 2 μl endonuclease. After 1 hour incubation at 37° C., the reaction was stopped by the addition 5 μl 1% SDS, 100 mM EDTA. Digested DNA was then subjected to a 1% agarose gel electrophoresis at 7 V/cm for 1 hour at room temperature. The gel was stained in 0.5 μg/ml ethidium bromide solution for 20 minutes and photographed under […]. Scanning densitometer Fotodyne (Fotodyne Inc., Hartland, Wis.) was utilized to quantify the relative amount of endonuclease-treated plasmid DNA present in a covalently closed circular DNA (cccDNA), open circular DNA (ocDNA) or linear DNA (linDNA). One endonuclease unit was defined as the amount of enzyme required to convert 1 μg cccDNA to ocDNA and linDNA.
(§2) Recombinant DNase I and rat serum DNase (which is predominantly rat DNase I) were incubated with 0, 100, or 200 μM of a Zn^2+-chelate (i.e., Zn-3,5-diisopropylsalicylic acid (DIPS), Zn-gluconate, or Zn-glycinate), a ligand (i.e., DIPS, gluconic acid, or glycine, as negative controls), or ZnCl2 (as positive control).

[4] = target: T2, recombinant human DNase I (Homo sapiens, UniProt P24855); test: Plasmid incision assay of endonuclease activity, recombinant DNase I; format: biochemical; conditions: 0, 100 or 200 μM; 1 hour at 37° C.; pBR322 plasmid DNA
T2 construct: Recombinant DNase I was produced using a similar approach; made in house
T2 sequence (P24855 23-282): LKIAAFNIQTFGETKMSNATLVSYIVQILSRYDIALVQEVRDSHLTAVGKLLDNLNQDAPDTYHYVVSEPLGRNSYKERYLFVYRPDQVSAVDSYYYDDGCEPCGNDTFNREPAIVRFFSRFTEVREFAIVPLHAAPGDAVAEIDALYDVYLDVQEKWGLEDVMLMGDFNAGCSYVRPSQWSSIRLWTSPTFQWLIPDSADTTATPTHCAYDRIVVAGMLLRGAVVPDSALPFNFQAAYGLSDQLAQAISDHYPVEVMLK
Method: It was hypothesized that Zn^2+-chelates of aminothiols could provide radioprotection via their direct inhibition of nucleases and their antioxidant properties (i.e., prevent nuclease induction and release). To test this hypothesis, the activity of Zn(II) chelates to inhibit nucleases was assayed in vitro. For this, DNase I and EndoG were cloned, recombinant nuclease were expressed and purified for the in vitro assay. Human and mouse mature EndoG cDNA was reverse transcribed by RT-PCR from either normal human breast epithelial HMEC cells (Clonetics, Walkersville, Md.) or immortalized mouse proximal tubule epithelial TKPTS cells (obtained from D. Elsa Bello-Reuss, University of Texas Medical Branch, Galveston). The plasmid for mature human EndoG (A49-K297) with a C-terminal histidine tag and mouse mature EndoG (A45-K294) with a C-terminal histidine tag were constructed by inserting coding cDNA into pET29b(+) (Novagen, San Diego, Calif.) and expressed in Escherichia coli BL21 (DE3) cells using standard procedures. Expression of the recombinant proteins was induced by IPTG. The expressed recombinant protein was purified by HisTrap FF crude Kit (GE Healthcare, Uppsala, Sweden) and stored in 20 mM Tris-HCl, ph 7.5, 0.5 M NaCl, 2 mM 2-mercaptoethanol, and 50% glycerol.
as §1, §2

[5] = test system: human U937 cells; test: Radiation injury of U937 cells (4 Gy), chelates added before or at times after irradiation; format: cell-based; conditions: added 30 minutes before, immediately after, or up to 4 hours after irradiation
Method: FRTL-5 thyroid cells (ATCC, catalog #CRL8305) were irradiated with 450 Gy without or with Zn^2+-chelates added before and/or after irradiation. […] In another experiment, Zn^2+-chelates (i.e., Zn-captopril, Zn-NAC, Zn-penicillamine, or Zn-PTCA) were added to human U937 cells either 30 minutes before, immediately after, or up to 4 hours after irradiation (4 Gy).

[6] = test system: U937 cells; test: Radiation-induced DNA fragmentation in U937 cells, TUNEL assay; format: cell-based, human; conditions: added before 50 Gy; TUNEL 24 hr later
Method: Female CD-1 mice (n=4) were irradiated with an 8 Gy dose and apoptotic endonuclease-mediated DNA fragmentation was measured in different organs 40 hours after irradiation. For this, tissue sections were subjected to terminal deoxynucleotidyl transferase mediated dUTP nick end labeling (TUNEL) staining with the In Situ Cell Death Detection Kit from Roche Diagnostics (Indianapolis, Ind.). After washing and counterstaining with 4,6-diamidino-2-phenylindole (DAPI) sections were mounted under coverslips using the Antifade kit (Molecular Probes; Eugene, Oreg.) and analyzed under an Axioskop-2 mot plus microscope (Carl Zeiss, Gottingen Germany) with green filter set #31001, red filter set #11010v2 and blue filter set #31000 from Chroma Technology Corp. (Rockingham, Vt.). Images and acquisitions were performed using digital camera AxioCam MRm (Carl Zeiss) and software Axiovision 3.1 (Carl Zeiss).
The ability of the Zn^2+-chelates to inhibit radiation-induced DNA fragmentation was also examined. U937 cells were exposed to amifostine (as a positive control) or Zn^2+—N-acetylcysteine (Zn-NAC), irradiated as described above, and DNA fragmentation and cell death were measured 24 hr later using a TUNEL assay, essentially as described in Example 1.

[7] = test system: U937 cells; test: Comet assay of U937 cells irradiated with 4 Gy; format: cell-based, human; conditions: 10 μM, 24 hr after irradiation
Method: Considering that the LD50/30 (i.e., the dose that […] in 50% of the animals at 30 days) for mice is approximately 8 Gy (Bichay et al., 1986, Strahlenther Onkol, 162(6):391-399), the 50 Gy dose used to irradiate the cells in the previous example was rather high. Thus, the Zn^2+-chelates were tested for radioprotection against a more physiological dose of radiation. The Zn^2+-chelates tested were Zn-NAC, Zn-captopril, Zn-2-propylthiazolidine-4-carboxylic acid (Zn-PTCA), and Zn-penacillamine. U937 cells were exposed to a Zn^2+-chelate (10 μM), irradiated with 4 Gy, and DNA fragmentation and apoptosis were measured using a single-cell gel electrophoresis assay (also known as Comet assay) 24 hr after irradiation. Alkaline or neutral Comet assays were performed using CometAssay™ kits from Trevigen (Gaithersburg, MC) according to the manufacturer's instructions. The slides were analyzed under an epifluorescense microscope using the Comet assay image analysis software (CometScore; TriTek, Sumerduck, Va.).

[8] = compound added before 50 Gy, Zn^2+-chelate 1-20 μM, PI assay 24 hr later

C[C@H](CS)C(=O)N1CCC[C@H]1C(=O)O [Captopril]
TEAC value, Ligand [1]: 0.90

NCCS [Cysteamine]
Radiation-induced cell death [2, 8]: inhibition
TEAC value, Ligand [1]: 0.40

N[C@@H](CS)C(=O)O [Cysteine]
Radioprotection / cytoprotection ([2]; 50 Gy): not cytoprotective
TEAC value, Ligand [1]: 0.43

CC(C)c1cc(C(=O)O)c(O)c(C(C)C)c1 [DIPS, 3,5-diisopropylsalicylic acid]
Inhibition of serum DNase activity [3]: no effect
Inhibition of DNase I activity [4]: no effect

CC(S)C(=O)NCC(=O)O (stereo not drawn) [MPG, N-(2-mercaptopropionyl)glycine]
TEAC value, Ligand [1]: 0.53

CC(=O)N[C@@H](CS)C(=O)O [NAC, N-Acetylcysteine]
Radioprotection / cytoprotection ([2]; 50 Gy): not cytoprotective
TEAC value, Ligand [1]: 0.88

CC(C)(S)[C@@H](N)C(=O)O [Penicillamine]
Antioxidant activity in TEAC assay [1]: strongest antioxidants
TEAC value, Ligand [1]: 1.54

[Zn+2] [Unchelated Zn^2+]
Antioxidant activity in TEAC assay [1]: no activity

CCCC1NC(C(=O)O)CS1.[Zn] (stereo not drawn) [Zn-PTCA, zinc-2-n-propylthiazolidine-4-carboxylic acid]
Protection against radiation injury [5]: protected

O=C([O-])[C@H](O)[C@@H](O)[C@H](O)[C@H](O)CO.O=C([O-])[C@H](O)[C@@H](O)[C@H](O)[C@H](O)CO.[Zn+2] [Zn-gluconate]
Inhibition of serum DNase activity [3]: inhibited
Inhibition of DNase I activity [4]: inhibited

NCC(=O)[O-].NCC(=O)[O-].[Zn+2] [Zn-glycinate]
Inhibition of serum DNase activity [3]: inhibited
Inhibition of DNase I activity [4]: inhibited

[Cl-].[Cl-].[Zn+2] [ZnCl2]
Inhibition of serum DNase activity [3]: inhibition
Radioprotection / cytoprotection ([2]; 50 Gy): did not provide any radioprotection
Cytotoxicity ([2]; U937 cells, 0-100 μM, 50 Gy): rather cytotoxic
Inhibition of DNase I activity [4]: inhibition

NCCCNCCSP(=O)(O)O [amifostine, Amifostine]
Radiation-induced DNA fragmentation [6]: inhibited
Radiation-induced cell death [2, 8]: inhibition
Visual comets (DNA degradation) [7]: absent

O=C(O)[C@H](O)[C@@H](O)[C@H](O)[C@H](O)CO [gluconic acid]
Inhibition of serum DNase activity [3]: no effect
Inhibition of DNase I activity [4]: no effect

NCC(=O)O [glycine]
Inhibition of serum DNase activity [3]: no effect
Inhibition of DNase I activity [4]: no effect

Zn^2+-Cysteamine [Zn-Cysteamine]
Inhibition of cell death compared with that induced by cysteamine or amifostine ([2]; added before 50 Gy, PI assay): better
Radiation-induced cell death [2, 8]: inhibited
TEAC value, Chelate [1]: 0.87

Zn^2+-Cysteine [Zn-Cysteine]
Radiation-induced cell death [2]: inhibited
Radioprotection / cytoprotection ([2]; 50 Gy): significant cytoprotection
TEAC value, Chelate [1]: 0.65

Zn—N-(2-mercaptopropionyl)glycine [Zn-MPG]
Radiation-induced cell death [2, 8]: inhibited
TEAC value, Chelate [1]: 0.97

zinc-captopril [Zn-Captopril]
Protection against radiation injury [5]: protected
TEAC value, Chelate [1]: 0.90

zinc-penicillamine [Zn-Penicillamine]
Protection against radiation injury [5]: protected
Antioxidant activity in TEAC assay [1]: strongest antioxidants
TEAC value, Chelate [1]: 2.05
